Values joined by “and” are separate entries in the source; they are usually repeats but may differ in a detail not shown here. Equal values may be shown once.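 All cell lines were grown in 96-well plates and treated with compound for 48 hours. Abbreviation: GI50, concentration required for 50% inhibition of growth. TGI: concentration producing complete growth inhibition.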
Columns and labels:
Experiment in all cases: growth of human tumour cells (NCI), 48 h
[1] = system: MDA-N
[2] = system: T-47D breast
[3] = system: MDA-MB-231 breast
[4] = system: HOP-18 NSCLC
[5] = system: LXFL 529 NSCLC
[6] = system: SNB-78 CNS
[7] = system: DMS 273 small cell lung
[8] = system: DLD-1 colon

| Structure (SMILES) | TGI [1] [µM] | TGI [2] [µM] | TGI [3] [µM] | TGI [5] [µM] | TGI [6] [µM] | TGI [8] [µM] | also measured |
| --- | --- | --- | --- | --- | --- | --- | --- |
| C/C=C/C=C\C1OC(O)([C@H](CC)C(=O)NC/C=C/C=C(\C)[C@H](OC)C(C)C2OC(\C=C/C=C/C=C(\C)C(=O)c3c(O)ccn(C)c3=O)[C@H](O)[C@@H]2O)C(O)C(O)C1(C)C (some centres not stated) | > 100 | > 100 | > 100 |  |  |  |  |
| COC(=O)C(CC(=O)Nc1ccc(Cl)c(Cl)c1)C(=O)C(=O)NC1C2CC3CC(C2)CC1C3 (configuration not stated) |  |  |  | > 100 | > 100 |  | TGI [4]: > 100 µM; TGI [7]: > 100 µM |
| C[C@@H]1C[C@@]2(O[C@@H]2C)C(=O)O[C@@H]2CCN3CC=C(COC(=O)[C@]1(C)O)[C@H]23 | > 100 | > 100 | > 100 |  |  |  |  |
| Clc1nc(Cl)c(Cc2ccccc2)c(Cl)n1 | 12.5 | 42.4 | 14.9 |  |  |  |  |
| O=C(N/C(=C\c1ccc(Oc2ccc(Cl)c(Cl)c2)cc1)c1nc2ccccc2[nH]1)c1ccccc1 |  |  |  | 32.3 | 54.8 | 42.9 | TGI [7]: 53.9 µM |
| C/C(=C\CC[C@]1(C)OC(C)(C)OC1CC/C(C)=C/CO[Si](c1ccccc1)(c1ccccc1)C(C)(C)C)CC/C=C/CO[Si](C)(C)C(C)(C)C (some centres not stated) |  |  |  |  | > 100 | > 100 | TGI [7]: > 100 µM |
| O=C1C[C@H]2CC3(CC[C@H]2CN1)OCCO3 |  |  |  | > 100 | > 100 | > 100 | TGI [7]: > 100 µM |
| C[CH2][Sn]([Cl])([Cl])[CH2]C |  |  |  | 25.2 | 46.4 | > 100 | GI50 [4]: 27 µM; TGI [4]: 55.4 µM; GI50 [8]: 36 µM; GI50 [5]: 12.5 µM; GI50 [6]: 20.3 µM; GI50 [7]: > 91.2 µM; TGI [7]: > 100 µM |
| Cc1cccc2c1C(=O)OC2(C)c1cccc2ccccc12 (configuration not stated) |  |  |  |  | > 100 | > 100 | TGI [4]: > 100 µM |
| COc1cc(-c2oc3c(OC)c(O)c(OC)c(O)c3c(=O)c2OC)ccc1O | > 100 | 67.1 | > 100 |  |  |  |  |
| O=C(NCP(=O)(O)O)c1cccnc1 | > 100 | > 100 | > 100 |  |  |  |  |
| CC(C)CCc1c(Cl)nc(Cl)nc1Cl | 21.4 |  |  |  |  |  |  |
| CC(=O)c1c[nH]cc1CO | > 10 | > 10 |  |  |  |  |  |
| NC(CCSC(F)F)C(=O)O (configuration not stated) |  |  |  | > 100 | > 100 | > 100 | TGI [7]: > 100 µM |
| CCOC1C=CCCO1 (configuration not stated) | > 100 | > 100 | > 100 |  |  |  |  |
| O=C1C(=O)c2ccccc2C(O)=C1CCCCCCCCC1CCCCC1 | 17.9 | 21.5 | 17.3 |  |  |  |  |

| Structure (SMILES) | TGI [1] [µM] | TGI [2] [µM] | TGI [3] [µM] | TGI [5] [µM] | TGI [6] [µM] | TGI [8] [µM] | also measured |
| --- | --- | --- | --- | --- | --- | --- | --- |
| CCOc1ccccc1NC(=O)C1=C(C)NC(C)=C(C(=O)Nc2ccccc2OCC)C1c1ccc(NC(C)=O)cc1 |  |  |  | > 100 | > 100 | > 100 |  |
| O=C1c2c(nc3ccccc3c2-c2ccccc2)CN1Nc1ccccc1 |  |  |  | > 100 |  | > 100 |  |
| COC(=O)[C@@H](C)C[C@H](Cc1ccccc1)NC(=O)c1csc([C@@H](C[C@H](C(C)C)N(C)C(=O)C2(NC(=O)[C@H]3CCCCN3C)CC2)OC(C)=O)n1 |  | > 33.3 | 4.36 |  |  |  | GI50 [2]: 3.33 nM; GI50 [3]: 6.81 nM and 3.33 nM |
| O=C(CN1C(=O)c2ccccc2C1=O)C(O)CN1C(=O)c2ccccc2C1=O (configuration not stated) | > 100 | > 100 | 50.5 |  |  |  |  |
| CCCCCCCCCCCC[n+]1ccc(C(N)=O)cc1 |  | 11.8 | 10.9 |  |  |  | GI50 [2]: 3060 nM; GI50 [3]: 2910 nM |
| OCCNCCNc1c2ccccc2nc2oc3ccccc3c12 |  | 38.4 | 37.5 |  |  |  | GI50 [2]: 11700 nM; GI50 [3]: 10300 nM |
| Clc1ccc2c(c1)-c1ccccc1C1=NCCN12 |  | 8.27 | 12.4 |  |  |  | GI50 [2]: 2730 nM; GI50 [3]: 2690 nM |
| N=C(N)c1ccc(-c2ccc(-c3cccs3)s2)nc1 |  | 5.57 | 3.39 |  |  |  | GI50 [2]: 2060 nM; GI50 [3]: 1550 nM |
| NCCCCN(Cc1nc2ccccc2[nH]1)[C@H]1CCCc2cccnc21 |  | > 100 | 56.3 |  |  |  | GI50 [2]: 21400 nM; GI50 [3]: 8880 nM |
| Cc1ccc(C2=C(c3ccccc3)C(Br)(c3ccccc3)C(c3ccccc3)=C2c2ccc(C)cc2)cc1 |  |  |  | > 100 | > 100 | > 100 | TGI [4]: > 100 µM |
| COc1ccccc1/C=N/N=C(\N)NO |  |  |  | > 100 | > 100 | > 100 | TGI [4]: > 100 µM |
| O=C(N/N=C\c1ccc(N(CCCl)CCCl)cc1Cl)c1cccnc1 |  | 20 | 62.3 |  |  |  | GI50 [2]: 2800 nM; GI50 [3]: 14100 nM |
| Cc1cc(=O)oc2cc(OCc3nc4ccccc4c(=O)[nH]3)ccc12 |  |  |  | > 100 |  | > 100 | TGI [4]: > 100 µM; TGI [7]: > 100 µM |
| c1ccc(SC(CCCCOC2CCCCO2)Sc2ccccc2)cc1 (configuration not stated) |  |  |  | > 100 | > 100 | > 100 | TGI [7]: > 100 µM |
| COc1cccc2c(=O)c3c(sc12)c(NCCN(C)C)nc1ccccc13 |  | 3.98 | 2.87 |  |  |  | GI50 [2]: 1650 nM; GI50 [3]: 1340 nM |

— PubChem BioAssay (NCI)
